Source: patent publication US11147272B2, “Pyridone compounds and agricultural and horticultural fungicides comprising the same as active ingredients” (MITSUI CHEMICALS AGRO, INC., priority 2017, dated 2021)

How the values were obtained:
[1] = test system: Magnaporthe grisea; assay: whole plant or invertebrate; assay type: in vivo; conditions: 250 ppm drug solution sprayed on test plant
[2] = test system: Alternaia brassicicola; assay: Test Example C: Alternaria sooty spot on cabbage; assay type: in vivo; conditions: 250 ppm drug solution sprayed on test plant
From the text: Seeds of a test plant (cabbage variety: Shikidori) were planted and cultivated until the cotyledons extended.
<Control Value> Control value=100{1−(n/3)}

[3] = test system: Puccinia recondita; assay: Test Example E: Brown rust on wheat; assay type: in vivo; conditions: 250 ppm drug solution sprayed on test plant
[4] = test system: Phytophthora infestans; assay: whole plant or invertebrate; assay type: in vivo; conditions: 250 ppm drug solution sprayed on test plant
[5] = test system: Botrytis cinerea; assay: Test Example B: Gray mold on tomato; conditions: 250 ppm drug solution sprayed on test plant
[6] = test system: Plasmopara viticola; assay: Test Example G: Downy mildew on vine; conditions: 250 ppm drug solution sprayed (2.5 ml/pot), grape Neomuscat, 7 to 10 days after inoculation
[7] = test system: Colletotrichum orbiculare; assay: Test Example H: Anthracnose on cucumber; conditions: 250 ppm drug solution sprayed (2.5 ml/pot), cucumber Sagami Hanjiro, 6 to 10 days after inoculation
[8] = test system: Blumeria graminis f. sp. hordei; assay: Test Example D: Powdery mildew on barley; conditions: 250 ppm drug solution sprayed on test plant

Row | SMILES | Test A control value [1] | Test C control value [2] | Test E control value [3] | Test F control value [4] | Test B control value [5] | Test G control value [6] | Test H control value [7] | Test D control value [8]
1 | CCCc1cc(Cl)c(=O)n(CC)c1-c1ccc(OC)cc1Br [compound 376] | H (more than 50% control value) | H (more than 50% control value) | H (more than 50% control value) | H (more than 50% control value) | H (more than 50% control value) | H (more than 50% control value) | H (more than 50% control value) | H (more than 50% control value)
2 | CCc1ccc(=O)n(CC)c1-c1c(F)cc(F)cc1F [compound 377] | L (50% or less control value) | L (50% or less control value) | L (50% or less control value) | L (50% or less control value) | L (50% or less control value) | L (50% or less control value) | H (more than 50% control value) | H (more than 50% control value)
3 | CCCc1cc(Cl)c(=O)n(CC)c1-c1c(F)cc(F)cc1F [compound 378] | H (more than 50% control value) | H (more than 50% control value) | H (more than 50% control value) | L (50% or less control value) | H (more than 50% control value) | L (50% or less control value) | H (more than 50% control value) | H (more than 50% control value)
4 | CCn1c(-c2c(F)cc(F)cc2F)c(C)cc(I)c1=O [compound 379] | L (50% or less control value) | H (more than 50% control value) | H (more than 50% control value) | L (50% or less control value) | H (more than 50% control value) | L (50% or less control value) | H (more than 50% control value) | H (more than 50% control value)
5 | CCn1c(-c2c(F)cc(OC)cc2F)c(C)cc(I)c1=O [compound 380] | H (more than 50% control value) | H (more than 50% control value) | H (more than 50% control value) | H (more than 50% control value) | H (more than 50% control value) | L (50% or less control value) | H (more than 50% control value) | H (more than 50% control value)
6 | CCn1c(-c2c(F)cc(F)cc2F)c(C(C)(O)C(C)C)cc(Br)c1=O (stereo not drawn) [compound 381] | H (more than 50% control value) | H (more than 50% control value) | H (more than 50% control value) | H (more than 50% control value) | H (more than 50% control value) | H (more than 50% control value) | H (more than 50% control value) | H (more than 50% control value)
7 | CCCc1cc(Br)c(=O)n(CC)c1-c1ccc(OC)cc1Br [compound 382] | H (more than 50% control value) | H (more than 50% control value) | H (more than 50% control value) | H (more than 50% control value) | H (more than 50% control value) | H (more than 50% control value) | H (more than 50% control value) | L (50% or less control value)
8 | CCCc1ccc(=O)n(CC)c1-c1c(F)cc(OC)cc1F [compound 383] | H (more than 50% control value) | H (more than 50% control value) | H (more than 50% control value) | L (50% or less control value) | H (more than 50% control value) | H (more than 50% control value) | H (more than 50% control value) | H (more than 50% control value)
9 | CCCc1cc(Cl)c(=O)n(CC)c1-c1c(F)cc(OC)cc1F [compound 384] | H (more than 50% control value) | H (more than 50% control value) | H (more than 50% control value) | L (50% or less control value) | H (more than 50% control value) | H (more than 50% control value) | H (more than 50% control value) | H (more than 50% control value)
10 | CCCc1cc(Br)c(=O)n(CC)c1-c1c(F)cc(OC)cc1F [compound 385] | H (more than 50% control value) | H (more than 50% control value) | H (more than 50% control value) | L (50% or less control value) | H (more than 50% control value) | H (more than 50% control value) | H (more than 50% control value) | H (more than 50% control value)
11 | CCc1cc(Cl)c(=O)n(CC)c1-c1c(F)cc(F)cc1F [compound 386] | H (more than 50% control value) | H (more than 50% control value) | H (more than 50% control value) | L (50% or less control value) | H (more than 50% control value) | H (more than 50% control value) | H (more than 50% control value) | H (more than 50% control value)
12 | CCc1cc(Br)c(=O)n(CC)c1-c1c(F)cc(F)cc1F [compound 387] | H (more than 50% control value) | H (more than 50% control value) | H (more than 50% control value) | L (50% or less control value) | H (more than 50% control value) | H (more than 50% control value) | H (more than 50% control value) | H (more than 50% control value)
13 | CCc1ccc(=O)n(CC)c1-c1c(F)cc(OC)cc1F [compound 388] | H (more than 50% control value) | H (more than 50% control value) | H (more than 50% control value) | L (50% or less control value) | H (more than 50% control value) | L (50% or less control value) | H (more than 50% control value) | L (50% or less control value)
14 | CCCc1cc(Br)c(=O)n(CC)c1-c1c(F)cc(F)cc1F [compound 389] | H (more than 50% control value) | H (more than 50% control value) | H (more than 50% control value) | L (50% or less control value) | H (more than 50% control value) | L (50% or less control value) | H (more than 50% control value) | H (more than 50% control value)
15 | CCc1cc(Cl)c(=O)n(CC)c1-c1c(F)cc(OC)cc1F [compound 390] | H (more than 50% control value) | H (more than 50% control value) | H (more than 50% control value) | L (50% or less control value) | H (more than 50% control value) | H (more than 50% control value) | H (more than 50% control value) | H (more than 50% control value)
16 | CCc1cc(Br)c(=O)n(CC)c1-c1c(F)cc(OC)cc1F [compound 391] | H (more than 50% control value) | H (more than 50% control value) | H (more than 50% control value) | L (50% or less control value) | H (more than 50% control value) | L (50% or less control value) | H (more than 50% control value) | L (50% or less control value)
17 | CCCc1ccc(=O)n(C)c1-c1ccc(F)cc1Br [compound 410] | L (50% or less control value) | L (50% or less control value) | H (more than 50% control value) | L (50% or less control value) | L (50% or less control value) | L (50% or less control value) | L (50% or less control value) | H (more than 50% control value)
18 | CCCc1ccc(=O)n(CC)c1-c1ccc(OC)cc1C [compound 411] | L (50% or less control value) | L (50% or less control value) | H (more than 50% control value) | L (50% or less control value) | H (more than 50% control value) | L (50% or less control value) | L (50% or less control value) | H (more than 50% control value)
